Experiments:
[1] = target: 5-hydroxytryptamine receptor 7 (Homo sapiens) (UniProt P34969); settings: Compound concentration 10.0 uM
[2] = target: Mast/stem cell growth factor receptor Kit (Homo sapiens) (UniProt P10721); settings: Compound concentration 1000.0 nM
[3] = target: ALK tyrosine kinase receptor (Homo sapiens) (UniProt Q9UM73); settings: Compound concentration 1000.0 nM
[4] = test system: Mast/stem cell growth factor receptor Kit (Homo sapiens), P10721 [A829P]; settings: Compound concentration 1000.0 nM
[5] = target: Homeodomain-interacting protein kinase 1 (Homo sapiens) (UniProt Q86Z02); settings: Compound concentration 1000.0 nM
[6] = target: Testis-specific serine/threonine-protein kinase 3 (Homo sapiens) (UniProt Q96PN8); settings: Compound concentration 1000.0 nM
[7] = target: Serine/threonine-protein kinase Nek3 (Homo sapiens) (UniProt P51956); settings: Compound concentration 1000.0 nM
[8] = target: Homeodomain-interacting protein kinase 2 (Homo sapiens) (UniProt Q9H2X6); settings: Compound concentration 1000.0 nM
[9] = target: Cyclin-dependent kinase-like 1 (Homo sapiens) (UniProt Q00532); settings: Compound concentration 1000.0 nM
[10] = target: Serine/threonine-protein kinase Nek10 (Homo sapiens) (UniProt Q6ZWH5); settings: Compound concentration 1000.0 nM
[11] = target: Calcium/calmodulin-dependent protein kinase kinase 1 (Homo sapiens) (UniProt Q8N5S9); settings: Compound concentration 1000.0 nM
[12] = target: Casein kinase I isoform delta (Homo sapiens) (UniProt P48730); settings: Compound concentration 1000.0 nM
[13] = target: Kappa-type opioid receptor (Homo sapiens) (UniProt P41145); settings: Compound concentration 10.0 uM
[14] = target: Calcium/calmodulin-dependent protein kinase type II subunit beta (Homo sapiens) (UniProt Q13554); settings: Compound concentration 1000.0 nM
[15] = target: Calcium/calmodulin-dependent protein kinase type 1 (Homo sapiens) (UniProt Q14012); settings: Compound concentration 1000.0 nM
[16] = target: Tyrosine-protein kinase ABL1 (Homo sapiens) (UniProt P00519); settings: Compound concentration 1000.0 nM
[17] = target: Epidermal growth factor receptor (Homo sapiens) (UniProt P00533); settings: Compound concentration 1000.0 nM
[18] = target: Calcium/calmodulin-dependent protein kinase type IV (Homo sapiens) (UniProt Q16566); settings: Compound concentration 1000.0 nM
[19] = target: Dual specificity mitogen-activated protein kinase kinase 4 (Homo sapiens) (UniProt P45985); settings: Compound concentration 1000.0 nM
[20] = target: Phosphatidylinositol 3-kinase catalytic subunit type 3 (Homo sapiens) (UniProt Q8NEB9); settings: Compound concentration 1000.0 nM
[21] = target: cAMP-dependent protein kinase catalytic subunit PRKX (Homo sapiens) (UniProt P51817); settings: Compound concentration 1000.0 nM
[22] = target: Fibroblast growth factor receptor 1 (Homo sapiens) (UniProt P11362); settings: Compound concentration 1000.0 nM
[23] = target: Macrophage colony-stimulating factor 1 receptor (Homo sapiens) (UniProt P07333); settings: Compound concentration 1000.0 nM
[24] = target: Serine/threonine-protein kinase Sgk3 (Homo sapiens) (UniProt Q96BR1); settings: Compound concentration 1000.0 nM
[25] = target: Serine/threonine-protein kinase MARK2 (Homo sapiens) (UniProt Q7KZI7); settings: Compound concentration 1000.0 nM
[26] = target: Mitogen-activated protein kinase 13 (Homo sapiens) (UniProt O15264); settings: Compound concentration 1000.0 nM
[27] = target: Histamine H1 receptor (Homo sapiens) (UniProt P35367); experiment: H1 (h) Eurofins-Cerep Cellular and Nuclear Receptor Functional Assays; settings: Compound concentration 10.0 uM
[28] = target: Casein kinase I isoform gamma-1 (Homo sapiens) (UniProt Q9HCP0); settings: Compound concentration 1000.0 nM
[29] = target: Serine/threonine-protein kinase 17B (Homo sapiens) (UniProt O94768); settings: Compound concentration 1000.0 nM
[30] = target: T1, Alpha-1A adrenergic receptor (Homo sapiens) (UniProt P35348); experiment: alpha1A (h) Eurofins-Cerep Cellular and Nuclear Receptor Functional Assays; settings: Compound concentration 10.0 uM
T1 sequence (whole entry): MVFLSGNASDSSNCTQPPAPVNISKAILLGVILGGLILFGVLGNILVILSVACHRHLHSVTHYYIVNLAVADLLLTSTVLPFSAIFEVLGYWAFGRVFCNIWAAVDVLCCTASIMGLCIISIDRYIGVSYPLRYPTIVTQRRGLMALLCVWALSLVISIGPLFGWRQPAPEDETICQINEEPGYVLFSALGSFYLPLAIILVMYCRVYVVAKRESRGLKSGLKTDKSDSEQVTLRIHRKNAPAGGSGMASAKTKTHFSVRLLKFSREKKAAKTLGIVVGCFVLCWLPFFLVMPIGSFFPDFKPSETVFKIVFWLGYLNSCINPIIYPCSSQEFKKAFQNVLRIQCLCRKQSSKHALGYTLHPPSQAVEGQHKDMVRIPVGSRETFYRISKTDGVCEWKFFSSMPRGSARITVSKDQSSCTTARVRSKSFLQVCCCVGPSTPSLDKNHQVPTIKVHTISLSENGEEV

[31] = target: 5-hydroxytryptamine receptor 6 (Homo sapiens) (UniProt P50406); experiment: 5-HT6 (h) Eurofins-Cerep Cellular and Nuclear Receptor Functional Assays; settings: Compound concentration 10.0 uM
[32] = target: Proto-oncogene tyrosine-protein kinase Src (Homo sapiens) (UniProt P12931); settings: Compound concentration 1000.0 nM
[33] = target: Mast/stem cell growth factor receptor Kit (Homo sapiens) (UniProt P10721); settings: Compound concentration 1000.0 nM; remark: listed apart in the source
[34] = test system: Mast/stem cell growth factor receptor Kit (Homo sapiens), P10721 [D816H]; settings: Compound concentration 1000.0 nM
[35] = target: Calcium/calmodulin-dependent protein kinase type 1B (Homo sapiens) (UniProt Q6P2M8); settings: Compound concentration 1000.0 nM
[36] = target: Beta-2 adrenergic receptor (Homo sapiens) (UniProt P07550); experiment: beta2 (h) Eurofins-Cerep Cellular and Nuclear Receptor Functional Assays; settings: Compound concentration 10.0 uM
[37] = test system: Tyrosine-protein kinase ABL1 (Homo sapiens), P00519 [E255K]; settings: Compound concentration 1000.0 nM
[38] = target: T1, Alpha-1A adrenergic receptor (Homo sapiens); settings: Compound concentration 10.0 uM

Sequence of Beta-2 adrenergic receptor (Homo sapiens) (P07550 whole entry, looked up): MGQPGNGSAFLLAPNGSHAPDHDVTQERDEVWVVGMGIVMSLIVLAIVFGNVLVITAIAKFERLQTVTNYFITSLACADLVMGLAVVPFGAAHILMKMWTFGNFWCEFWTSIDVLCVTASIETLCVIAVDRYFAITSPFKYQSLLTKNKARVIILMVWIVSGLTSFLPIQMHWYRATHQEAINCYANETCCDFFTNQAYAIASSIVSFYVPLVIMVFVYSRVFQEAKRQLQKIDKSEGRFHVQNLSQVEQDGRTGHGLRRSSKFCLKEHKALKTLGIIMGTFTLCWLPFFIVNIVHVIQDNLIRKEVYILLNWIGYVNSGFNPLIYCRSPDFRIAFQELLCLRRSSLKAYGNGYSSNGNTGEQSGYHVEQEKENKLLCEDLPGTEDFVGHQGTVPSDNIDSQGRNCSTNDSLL
Sequence of 5-hydroxytryptamine receptor 6 (Homo sapiens) (P50406 whole entry): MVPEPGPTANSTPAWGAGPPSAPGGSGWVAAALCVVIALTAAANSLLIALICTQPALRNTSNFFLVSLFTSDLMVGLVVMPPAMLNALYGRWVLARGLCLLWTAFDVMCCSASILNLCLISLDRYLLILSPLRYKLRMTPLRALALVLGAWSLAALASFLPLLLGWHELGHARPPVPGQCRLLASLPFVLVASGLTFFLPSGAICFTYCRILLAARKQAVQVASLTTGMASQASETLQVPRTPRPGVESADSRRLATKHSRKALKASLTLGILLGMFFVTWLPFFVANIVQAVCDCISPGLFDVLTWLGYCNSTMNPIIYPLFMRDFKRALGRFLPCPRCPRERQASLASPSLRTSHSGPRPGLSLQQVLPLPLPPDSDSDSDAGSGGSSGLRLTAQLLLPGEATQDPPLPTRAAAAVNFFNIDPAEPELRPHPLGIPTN
Sequence of Mast/stem cell growth factor receptor Kit (Homo sapiens) (P10721 whole entry): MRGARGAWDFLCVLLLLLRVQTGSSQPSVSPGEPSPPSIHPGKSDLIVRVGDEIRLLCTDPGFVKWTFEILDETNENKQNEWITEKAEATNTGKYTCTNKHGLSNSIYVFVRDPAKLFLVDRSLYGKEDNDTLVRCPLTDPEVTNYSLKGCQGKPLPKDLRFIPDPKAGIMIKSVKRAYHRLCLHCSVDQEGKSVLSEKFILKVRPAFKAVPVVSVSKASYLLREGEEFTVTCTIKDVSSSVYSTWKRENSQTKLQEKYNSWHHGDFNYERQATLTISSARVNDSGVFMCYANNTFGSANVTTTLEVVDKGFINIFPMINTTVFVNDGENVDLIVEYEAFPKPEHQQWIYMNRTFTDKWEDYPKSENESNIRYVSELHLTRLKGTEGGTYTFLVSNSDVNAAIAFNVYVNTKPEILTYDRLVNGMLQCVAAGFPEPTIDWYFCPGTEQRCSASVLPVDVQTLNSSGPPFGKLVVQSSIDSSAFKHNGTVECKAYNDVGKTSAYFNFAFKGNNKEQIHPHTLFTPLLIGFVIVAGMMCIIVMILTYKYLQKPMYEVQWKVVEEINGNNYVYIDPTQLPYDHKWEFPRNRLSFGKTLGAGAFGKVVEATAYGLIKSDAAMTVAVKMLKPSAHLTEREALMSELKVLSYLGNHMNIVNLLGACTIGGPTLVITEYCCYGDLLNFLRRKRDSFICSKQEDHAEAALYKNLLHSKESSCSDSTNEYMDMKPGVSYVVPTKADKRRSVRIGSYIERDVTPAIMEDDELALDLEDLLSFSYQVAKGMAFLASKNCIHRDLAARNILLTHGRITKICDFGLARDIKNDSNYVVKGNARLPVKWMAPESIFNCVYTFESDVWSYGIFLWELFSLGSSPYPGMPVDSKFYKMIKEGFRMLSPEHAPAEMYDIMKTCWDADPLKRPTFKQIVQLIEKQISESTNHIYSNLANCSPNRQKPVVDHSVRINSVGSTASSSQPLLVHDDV
Sequence of Histamine H1 receptor (Homo sapiens) (P35367 whole entry, canonical isoform): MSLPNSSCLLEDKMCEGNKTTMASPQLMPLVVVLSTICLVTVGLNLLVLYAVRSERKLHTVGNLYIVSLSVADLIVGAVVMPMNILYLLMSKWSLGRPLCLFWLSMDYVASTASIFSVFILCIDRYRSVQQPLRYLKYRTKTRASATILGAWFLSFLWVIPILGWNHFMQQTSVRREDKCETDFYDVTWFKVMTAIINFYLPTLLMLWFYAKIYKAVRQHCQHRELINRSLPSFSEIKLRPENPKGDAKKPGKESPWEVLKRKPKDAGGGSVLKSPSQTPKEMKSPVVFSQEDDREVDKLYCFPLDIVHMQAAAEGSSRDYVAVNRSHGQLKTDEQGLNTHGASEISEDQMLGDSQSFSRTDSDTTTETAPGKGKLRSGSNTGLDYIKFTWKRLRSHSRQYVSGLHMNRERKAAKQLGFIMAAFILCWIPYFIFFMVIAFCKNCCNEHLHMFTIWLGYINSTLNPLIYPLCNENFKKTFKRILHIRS
Sequence of cAMP-dependent protein kinase catalytic subunit PRKX (Homo sapiens) (P51817 whole entry): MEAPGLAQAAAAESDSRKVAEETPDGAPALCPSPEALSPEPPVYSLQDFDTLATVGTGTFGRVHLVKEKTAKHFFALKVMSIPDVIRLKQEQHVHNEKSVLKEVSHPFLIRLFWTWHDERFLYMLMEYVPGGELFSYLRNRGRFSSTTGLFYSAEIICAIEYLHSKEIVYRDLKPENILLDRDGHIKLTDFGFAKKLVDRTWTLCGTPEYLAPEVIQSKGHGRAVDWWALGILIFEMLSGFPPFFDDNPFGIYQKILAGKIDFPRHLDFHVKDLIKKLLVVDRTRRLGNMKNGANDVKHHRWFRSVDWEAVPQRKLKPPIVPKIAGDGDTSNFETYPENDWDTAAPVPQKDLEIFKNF
Sequence of Mast/stem cell growth factor receptor Kit (Homo sapiens), P10721 [D816H] (P10721 whole entry D816H): as the sequence (P10721 whole entry) above, with D816H counted along it
Sequence of Calcium/calmodulin-dependent protein kinase type IV (Homo sapiens) (Q16566 whole entry): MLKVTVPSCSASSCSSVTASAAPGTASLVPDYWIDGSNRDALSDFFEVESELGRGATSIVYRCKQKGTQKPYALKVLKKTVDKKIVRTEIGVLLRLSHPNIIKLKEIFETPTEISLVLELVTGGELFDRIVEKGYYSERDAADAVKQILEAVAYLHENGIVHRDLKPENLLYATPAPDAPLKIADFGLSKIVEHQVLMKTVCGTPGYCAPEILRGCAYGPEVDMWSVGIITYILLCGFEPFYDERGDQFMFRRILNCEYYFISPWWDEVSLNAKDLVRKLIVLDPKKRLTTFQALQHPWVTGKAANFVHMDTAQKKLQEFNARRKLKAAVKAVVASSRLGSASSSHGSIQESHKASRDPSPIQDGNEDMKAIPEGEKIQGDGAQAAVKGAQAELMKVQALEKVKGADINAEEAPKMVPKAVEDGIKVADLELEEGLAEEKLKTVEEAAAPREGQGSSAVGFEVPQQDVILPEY
Sequence of 5-hydroxytryptamine receptor 7 (Homo sapiens) (P34969 whole entry): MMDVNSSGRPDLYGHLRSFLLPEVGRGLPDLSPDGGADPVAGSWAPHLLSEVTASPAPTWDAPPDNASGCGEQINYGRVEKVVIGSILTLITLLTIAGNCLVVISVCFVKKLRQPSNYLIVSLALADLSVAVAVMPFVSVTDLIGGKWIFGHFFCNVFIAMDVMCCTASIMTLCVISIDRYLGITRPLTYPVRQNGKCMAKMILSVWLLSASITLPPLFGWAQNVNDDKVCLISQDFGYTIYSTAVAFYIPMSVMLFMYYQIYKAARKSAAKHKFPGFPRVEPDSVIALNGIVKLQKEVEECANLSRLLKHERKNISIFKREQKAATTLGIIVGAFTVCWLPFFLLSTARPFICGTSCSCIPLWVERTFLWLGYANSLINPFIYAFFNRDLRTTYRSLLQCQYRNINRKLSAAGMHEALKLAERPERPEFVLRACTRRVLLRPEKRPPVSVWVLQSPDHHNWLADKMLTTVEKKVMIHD
Sequence of Dual specificity mitogen-activated protein kinase kinase 4 (Homo sapiens) (P45985 whole entry): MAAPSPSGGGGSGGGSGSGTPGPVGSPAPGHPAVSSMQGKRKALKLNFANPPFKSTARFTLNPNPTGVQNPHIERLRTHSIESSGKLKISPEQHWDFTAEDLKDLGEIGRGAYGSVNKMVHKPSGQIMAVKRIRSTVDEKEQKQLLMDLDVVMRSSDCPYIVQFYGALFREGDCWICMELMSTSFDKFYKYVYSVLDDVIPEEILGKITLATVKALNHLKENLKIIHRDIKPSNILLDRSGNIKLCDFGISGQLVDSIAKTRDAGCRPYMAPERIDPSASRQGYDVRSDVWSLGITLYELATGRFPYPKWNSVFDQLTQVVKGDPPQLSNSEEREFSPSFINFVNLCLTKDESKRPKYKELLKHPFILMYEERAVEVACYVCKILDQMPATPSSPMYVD

Structure (SMILES): O=C(N1CCS(=O)(=O)CC1)N1C[C@H](c2ccc(OC(F)(F)F)cc2)C[C@H](c2nc(C3CC3)no2)C1 [BAY-386]
- inhibition [1]: -0.77%
- residual activity [2]: 100%
- residual activity [3]: 100%
- residual activity [4]: 100%
- residual activity [5]: 100%
- residual activity [6]: 100%
- residual activity [7]: 100%
- residual activity [8]: 100%
- residual activity [9]: 100%
- residual activity [10]: 81%
- residual activity [11]: 100%
- residual activity [12]: 100%
- inhibition [13]: 1.29%
- residual activity [14]: 100%
- residual activity [15]: 100%
- residual activity [16]: 92%
- residual activity [17]: 100%
- residual activity [18]: 91%
- residual activity [19]: 95%
- residual activity [20]: 100%
- residual activity [21]: 100%
- residual activity [22]: 100%
- residual activity [23]: 100%
- residual activity [24]: 100%
- residual activity [25]: 100%
- residual activity [26]: 100%
- % Inhibition of Control Agonist Response (Mean n=2) [27]: 6.9%
- % of Control Agonist Response (Mean n=2) [27]: 4.1%
- residual activity [28]: 100%
- residual activity [29]: 100%
- % Inhibition of Control Agonist Response (Mean n=2) [30]: 18.8%
- % of Control Agonist Response (Mean n=2) [30]: 11.5%
- % Inhibition of Control Agonist Response (Mean n=2) [31]: 21.1%
- % of Control Agonist Response (Mean n=2) [31]: 2.8%
- residual activity [32]: 97%
- residual activity [33]: 100%
- residual activity [34]: 71%
- residual activity [35]: 100%
- % Inhibition of Control Agonist Response (Mean n=2) [36]: -6.9%
- % of Control Agonist Response (Mean n=2) [36]: -1.7%
- residual activity [37]: 100%
- inhibition [38]: -5%

Structure (SMILES): Cc1noc([C@H]2C[C@@H](c3ccc(C(F)(F)F)cc3)CN(C(=O)N3CCS(=O)(=O)C3)C2)n1 [BAY-448]
- inhibition [1]: 21.8%
- residual activity [2]: 84%
- residual activity [3]: 100%
- residual activity [4]: 100%
- residual activity [5]: 82%
- residual activity [6]: 100%
- residual activity [7]: 73%
- residual activity [8]: 100%
- residual activity [9]: 100%
- residual activity [10]: 84%
- residual activity [11]: 100%
- residual activity [12]: 100%
- inhibition [13]: 7.69%
- residual activity [14]: 100%
- residual activity [15]: 100%
- residual activity [16]: 100%
- residual activity [17]: 100%
- residual activity [18]: 95%
- residual activity [19]: 100%
- residual activity [20]: 90%
- residual activity [21]: 100%
- residual activity [22]: 100%
- residual activity [23]: 100%
- residual activity [24]: 100%
- residual activity [25]: 100%
- residual activity [26]: 100%
- % Inhibition of Control Agonist Response (Mean n=2) [27]: -14.6%
- % of Control Agonist Response (Mean n=2) [27]: 0.3%
- residual activity [28]: 100%
- residual activity [29]: 100%
- % Inhibition of Control Agonist Response (Mean n=2) [30]: 4.3%
- % of Control Agonist Response (Mean n=2) [30]: -0.4%
- % Inhibition of Control Agonist Response (Mean n=2) [31]: 2.1%
- % of Control Agonist Response (Mean n=2) [31]: 1.4%
- residual activity [32]: 96%
- residual activity [33]: 100%
- residual activity [34]: 100%
- residual activity [35]: 100%
- % Inhibition of Control Agonist Response (Mean n=2) [36]: 10.2%
- % of Control Agonist Response (Mean n=2) [36]: 2.3%
- residual activity [37]: 100%
- inhibition [38]: -4.12%

Reference: ChEMBL document CHEMBL4507269, “Data for DCP probe BAY-386” (2021)
